Experimental data as given in patent US4198504A, “[3-(Pyridinium)-7-(naphthyiridinyl carbonylamino)acetamido]cephalosporanic acid derivatives” (Bristol-Myers Company, priority 1978, dated 1980).

Tests used:
[1] = Antibiotic blood levels in mice following intramuscular administration (paper disc-agar diffusion, Escherichia coli NIHJ as assay organism); format: in vivo; details: mouse, im, I.M., 20 mg./kg.; for half-life: read-out: Blood level, Half-life; for Cmax: read-out: Blood level, Peak Concentration
Method: Antibiotic blood levels were determined in mice following intramuscular administration of the test compounds at 20 mg./kg. The blood samples were collected from the orbital sinuses into heparinized capillary tubes at 15, 30, 60 and 120 minutes after administration. The antibiotic concentration was determined by the paper disc-agar diffusion method using Escherichia coli NIHJ as the assay organism.

Ps. aeruginosa = assay: In vitro MIC, serial two-fold agar dilution, primary evaluation Ps (6 strains); format: cell-based; details: CBPC = 100%; geometric mean of MICs; Mueller-Hinton agar
Method: (§1) Minimun inhibitory concentrations (MIC) were determined by the serial two-fold agar dilution method using Steers' apparatus on Mueller-Hinton agar plate against 31 test organisms for the primary screening and also against 64 strains of Pseudomonas aeruginosa for the secondary evaluation. The results are shown in Table 1 in terms of relative activity with respect to the standard compound CBPC (carbenicillin) which was set at 100%. In each group the calculation was based on the geometric mean of the observed MICs.
Ps. = Ps. aeruginosa (6).

Pseudomonas aeruginosa = assay: In vitro MIC, serial two-fold agar dilution, secondary evaluation against Pseudomonas aeruginosa strains; format: cell-based; details: CBPC = 100%; geometric mean of MICs; 61-64 strains
Method: as §1

Escherichia coli Juhl = assay: In vivo efficacy, experimental infection in mice, intramuscular treatment, Escherichia coli Juhl; parameters: species or system Escherichia coli (infected mice); details: im, 120 h, I.M., 100×LD50 challenge i.p., 5 days, read-out: PD50 Escherichia coli Juhl
Method: (§2) The in vivo efficacy was evaluated by intramuscular treatment against three kinds of experimental infection in mice.
(§3) The in vivo tests were carried out using the following three pathogenic organisms:
(§4) Mice were challenged intraperitoneally with approximately a 100×LD50 dose of the pathogens in a 5% mucin suspension. The mice were treated with test compound by I.M. route immediately after the bacterial challenge.

S. aureus = assay: In vitro MIC, serial two-fold agar dilution, primary evaluation Gp (S. aureus, 6 strains); format: cell-based; details: CBPC = 100%; geometric mean of MICs; Mueller-Hinton agar
Method: as §1
*GP = S. aureus (6 strains);

[2] = test system: Ent. cloacae (3), Pr. vulgaris (1), Pr. morganii (1), S. marcescen (1); assay: In vitro MIC, serial two-fold agar dilution, primary evaluation Gn-II (Ent. cloacae, Pr. vulgaris, Pr. morganii, S. marcescens); format: cell-based; details: CBPC = 100%; geometric mean of MICs; Mueller-Hinton agar
Method: as §1
GnII = Ent. cloacae (3), Pr. vulgaris (1), Pr. morganii (1), S. marcescen

[3] = test system: Pseudomonas aeruginosa A9843; assay: In vivo efficacy, experimental infection in mice, intramuscular treatment, Pseudomonas aeruginosa A9843; parameters: species or system Pseudomonas aeruginosa (infected mice); details: A9843, im, 120 h, I.M., 100×LD50 challenge i.p., 5 days, read-out: PD50 Pseudomonas aeruginosa A9843
Method: as §2, §3
Pseudomonas aeruginosa A9843
as §4

[4] = test system: Staphylococcus aureus Smith; assay: In vivo efficacy, experimental infection in mice, intramuscular treatment, Staphylococcus aureus Smith; parameters: species or system Staphylococcus aureus (infected mice); details: im, 120 h, I.M., 100×LD50 challenge i.p., 5 days, read-out: PD50 Staphylococcus aureus Smith
Method: as §2, §3
Staphylococcus aureus Smith
as §4

[5] = test system: E. coli (9), Klebsiella sp. (2), Pr. mirabilis (1), Sal. enteritidis (1); assay: In vitro MIC, serial two-fold agar dilution, primary evaluation Gn-I (E. coli, Klebsiella sp., Pr. mirabilis, Sal. enteritidis); format: cell-based; details: CBPC = 100%; geometric mean of MICs; Mueller-Hinton agar
Method: as §1
GnI = E. coli (9), Klebsiella sp. (2), Pr. mirabilis (1), Sal.

Compound	half-life [1]	Cmax [1]	In vitro relative activity, primary evaluation Ps (6) (Ps. aeruginosa)	In vitro relative activity, secondary, Pseudomonas aeruginosa (61-64) (Pseudomonas aeruginosa)	ED50 (Escherichia coli Juhl)	In vitro relative activity, primary evaluation Gp (6) (S. aureus)	In vitro relative activity, primary evaluation Gn-II (6) [2]	ED50 [3]	ED50 [4]	In vitro relative activity, primary evaluation Gn-I (13) [5]
O=C(O)Cc1cc[n+](CC2=C(C(=O)[O-])N3C(=O)C(NC(=O)[C@H](NC(=O)c4cnc5cccnc5c4O)c4ccc(O)cc4)C3SC2)cc1 (stereo partly drawn) [BB-S591, 7-[D-α-(4-Hydroxy-1,5-naphthyridine-3-carboxamido)-α-(4-hydroxyphenyl)acetamido]-3-(4-carboxymethylpyridinium)methyl-3-cephem-4-carboxylate]	54 min	11000 ng/mL	883%	1160%	6.25 mg/kg	31%	18%	12.5 mg/kg	6.15 mg/kg	167%
O=C(O)Cc1ccc[n+](CC2=C(C(=O)[O-])N3C(=O)C(NC(=O)[C@H](NC(=O)c4cnc5cccnc5c4O)c4ccc(O)cc4)C3SC2)c1 (stereo partly drawn) [BB-S580, 7-[D-α-(4-Hydroxy-1,5-naphthyridine-3-carboxamido)-α-(4-hydroxyphenyl)acetamido]-3-(3-carboxymethylpyridinium)methyl-3-cephem-4-carboxylate]	33 min	16500 ng/mL	2490%	1780%	1.2 mg/kg	27%	33%	6.4 mg/kg	2.6 mg/kg	359%
O=C(O)Cc1ccc[n+](CC2=C(C(=O)[O-])N3C(=O)C(NC(=O)[C@H](NC(=O)c4cnc5cccnc5c4O)c4ccc(O)c(Cl)c4)C3SC2)c1 (stereo partly drawn) [BB-S604, 7-[D-α-(4-Hydroxy-1,5-naphthyridine-3-carboxamido)-α-(3-chloro-4-hydroxyphenyl)acetamido]-3-(3-carboxymethylpyridinium)-methyl-3-cephem-4-carboxylate]	56 min	10500 ng/mL	1450%	2030%	2.4 mg/kg	50%	45%	6.2 mg/kg	2.5 mg/kg	94%
O=C([O-])C1=C(C[n+]2cccc(C(=O)O)c2)CSC2C(NC(=O)[C@H](NC(=O)c3cnc4cccnc4c3O)c3ccc(O)c(Cl)c3)C(=O)N12 (stereo partly drawn) [BB-S600, 7-[D-α-(4-Hydroxy-1,5-naphthyridine-3-carboxamido)-α-(3-chloro-4-hydroxyphenyl)acetamido]-3-(3-carboxypyridinium)-methyl-3-cephem-4-carboxylate]	70 min	6200 ng/mL	2340%	2500%	2.2 mg/kg	70%	30%	6.2 mg/kg	2 mg/kg	107%
O=C([O-])C1=C(C[n+]2ccc(CCS(=O)(=O)O)cc2)CSC2C(NC(=O)[C@H](NC(=O)c3cnc4cccnc4c3O)c3ccc(O)c(Cl)c3)C(=O)N12 (stereo partly drawn) [BB-S605, 7-[D-α-(4-Hydroxy-1,5-naphthyridine-3-carboxamido)-α-(3-chloro-4-hydroxyphenyl)acetamido]-3-(4-sulfoethylpyridinium)-methyl-3-cephem-4-carboxylate]	54 min	9400 ng/mL	1310%	1300%	3.1 mg/kg	40%	40%	8.4 mg/kg	3.1 mg/kg	83%
O=C([O-])C1=C(C[n+]2cccc(S(=O)(=O)O)c2)CSC2C(NC(=O)[C@H](NC(=O)c3cnc4cccnc4c3O)c3ccc(O)c(O)c3)C(=O)N12 (stereo partly drawn) [BB-S609, 7-[D-α-(4-Hydroxy-1,5-naphthyridine-3-carboxamido)-α-(3,4-dihydroxyphenyl)acetamido]-3-(3-sulfopyridinium)methyl-3-cephem-4-carboxylate]	51 min	7400 ng/mL	1450%	1375%	1.8 mg/kg	18%	11%	1.2 mg/kg	17 mg/kg	53%
O=C([O-])C1=C(C[n+]2ccccc2C(=O)O)CSC2C(NC(=O)[C@H](NC(=O)c3cnc4cccnc4c3O)c3ccc(O)cc3)C(=O)N12 (stereo partly drawn) [BB-S585, 7-[D-α-(4-Hydroxy-1,5-naphthyridine-3-carboxamido)-α-(4-hydroxyphenyl)acetamido]-3-(2-carboxypyridinium)methyl-3-cephem-4-carboxylate]	60 min	5800 ng/mL	297%	466%	7.4 mg/kg	20%	4%	86 mg/kg	10 mg/kg	53%
O=C(O)C=Cc1ccc[n+](CC2=C(C(=O)[O-])N3C(=O)C(NC(=O)[C@H](NC(=O)c4cnc5cccnc5c4O)c4ccc(O)c(Cl)c4)C3SC2)c1 (stereo partly drawn) [BB-S602, 7-[D-α-(4-Hydroxy-1,5-naphthyridine-3-carboxamido)-α-(3-chloro-4-hydroxyphenyl)acetamido]-3-(3-carboxyvinylpyridinium)-methyl-3-cephem-4-carboxylate]	60 min	8000 ng/mL	2080%	1530%	1.4 mg/kg	58%	63%	8.4 mg/kg	0.8 mg/kg	94%
O=C([O-])C1=C(C[n+]2cccc(C(=O)O)c2)CSC2C(NC(=O)[C@H](NC(=O)c3cnc4cccnc4c3O)c3ccc(O)cc3)C(=O)N12 (stereo partly drawn) [BB-S579]	75 min	12000 ng/mL	2880%	2780%	1.8 mg/kg	28%	22%	6.4 mg/kg	2 mg/kg	230%
